In BindingDB's records for doi:10.1021/jm00090a009 (Takeda Chemical Industries, 1992):

Target: Thromboxane A2 receptor (Cavia porcellus)
Test: Compound was evaluated for its ability to inhibit specific binding of [3H]U-46619 to Thromboxane A2/ Prostaglandin H2 receptor in guinea pig platelet membrane

IC50 [nM] | Structure (SMILES)
1400 | Cc1c(C)c(O)c(C(=CCCCCC(=O)O)c2ccc(F)cc2)c(C)c1O
30 | Cc1c(C)c(C(CCCCCC(=O)O)c2ccc(F)cc2)c(O)c(C)c1C=O (configuration not stated)
